Experimental data from patent EP3002287B1, “Thiochromeno[2,3-c]quinolin-12-one derivatives and their use as topoisomerase inhibitors” (National Defense Medical Center, priority 2014, dated 2016).

Assays:
CCRF-CEM = assay: NCI in vitro 60-cell drug screen (SRB assay); assay type: cell-based; conditions: CCRF-CEM (Leukemia); 10^-5 molar concentration; 48 hours
K-562 = assay: NCI in vitro 60-cell drug screen (SRB assay); assay type: cell-based; conditions: K-562 (Leukemia); 10^-5 molar concentration; 48 hours
MOLT-4 = assay: NCI in vitro 60-cell drug screen (SRB assay); assay type: cell-based; conditions: MOLT-4 (Leukemia); 10^-5 molar concentration; 48 hours
SR = assay: NCI in vitro 60-cell drug screen (SRB assay); assay type: cell-based; conditions: SR (Leukemia); 10^-5 molar concentration; 48 hours
A549/ATCC = assay: NCI in vitro 60-cell drug screen (SRB assay); assay type: cell-based; conditions: A549/ATCC (Non-small cell lung cancer); 10^-5 molar concentration; 48 hours
HOP-62 = assay: NCI in vitro 60-cell drug screen (SRB assay); assay type: cell-based; conditions: HOP-62 (Non-small cell lung cancer); 10^-5 molar concentration; 48 hours
NCI-H322M = assay: NCI in vitro 60-cell drug screen (SRB assay); assay type: cell-based; conditions: NCI-H322M (Non-small cell lung cancer); 10^-5 molar concentration; 48 hours
NCI-H460 = assay: NCI in vitro 60-cell drug screen (SRB assay); assay type: cell-based; conditions: NCI-H460 (Non-small cell lung cancer); 10^-5 molar concentration; 48 hours
NCI-H522 = assay: NCI in vitro 60-cell drug screen (SRB assay); assay type: cell-based; conditions: NCI-H522 (Non-small cell lung cancer); 10^-5 molar concentration; 48 hours
HCT-116 = assay: NCI in vitro 60-cell drug screen (SRB assay); assay type: cell-based; conditions: HCT-116 (Colon cancer); 10^-5 molar concentration; 48 hours
HCT-15 = assay: NCI in vitro 60-cell drug screen (SRB assay); assay type: cell-based; conditions: HCT-15 (Colon cancer); 10^-5 molar concentration; 48 hours
SF-539 = assay: NCI in vitro 60-cell drug screen (SRB assay); assay type: cell-based; conditions: SF-539 (CNS cancer); 10^-5 molar concentration; 48 hours
SNB-19 = assay: NCI in vitro 60-cell drug screen (SRB assay); assay type: cell-based; conditions: SNB-19 (CNS cancer); 10^-5 molar concentration; 48 hours
SNB-75 = assay: NCI in vitro 60-cell drug screen (SRB assay); assay type: cell-based; conditions: SNB-75 (CNS cancer); 10^-5 molar concentration; 48 hours
U251 = assay: NCI in vitro 60-cell drug screen (SRB assay); assay type: cell-based; conditions: U251 (CNS cancer); 10^-5 molar concentration; 48 hours
LOX IMVI = assay: NCI in vitro 60-cell drug screen (SRB assay); assay type: cell-based; conditions: LOX IMVI (Melanoma); 10^-5 molar concentration; 48 hours
MALME-3M = assay: NCI in vitro 60-cell drug screen (SRB assay); assay type: cell-based; conditions: MALME-3M (Melanoma); 10^-5 molar concentration; 48 hours
M14 = assay: NCI in vitro 60-cell drug screen (SRB assay); assay type: cell-based; conditions: M14 (Melanoma); 10^-5 molar concentration; 48 hours
SK-MEL-2 = assay: NCI in vitro 60-cell drug screen (SRB assay); assay type: cell-based; conditions: SK-MEL-2 (Melanoma); 10^-5 molar concentration; 48 hours
UACC-257 = assay: NCI in vitro 60-cell drug screen (SRB assay); assay type: cell-based; conditions: UACC-257 (Melanoma); 10^-5 molar concentration; 48 hours
UACC-62 = assay: NCI in vitro 60-cell drug screen (SRB assay); assay type: cell-based; conditions: UACC-62 (Melanoma); 10^-5 molar concentration; 48 hours
OVCAR-4 = assay: NCI in vitro 60-cell drug screen (SRB assay); assay type: cell-based; conditions: OVCAR-4 (Ovarian cancer); 10^-5 molar concentration; 48 hours
OVCAR-5 = assay: NCI in vitro 60-cell drug screen (SRB assay); assay type: cell-based; conditions: OVCAR-5 (Ovarian cancer); 10^-5 molar concentration; 48 hours
OVCAR-8 = assay: NCI in vitro 60-cell drug screen (SRB assay); assay type: cell-based; conditions: OVCAR-8 (Ovarian cancer); 10^-5 molar concentration; 48 hours
786-0 = assay: NCI in vitro 60-cell drug screen (SRB assay); assay type: cell-based; conditions: 786-0 (Renal cancer); 10^-5 molar concentration; 48 hours
A498 = assay: NCI in vitro 60-cell drug screen (SRB assay); assay type: cell-based; conditions: A498 (Renal cancer); 10^-5 molar concentration; 48 hours
ACHN = assay: NCI in vitro 60-cell drug screen (SRB assay); assay type: cell-based; conditions: ACHN (Renal cancer); 10^-5 molar concentration; 48 hours
RXF 393 = assay: NCI in vitro 60-cell drug screen (SRB assay); assay type: cell-based; conditions: RXF 393 (Renal cancer); 10^-5 molar concentration; 48 hours
SN12C = assay: NCI in vitro 60-cell drug screen (SRB assay); assay type: cell-based; conditions: SN12C (Renal cancer); 10^-5 molar concentration; 48 hours
MCF7 = assay: NCI in vitro 60-cell drug screen (SRB assay); assay type: cell-based; conditions: MCF7 (Breast cancer); 10^-5 molar concentration; 48 hours
MDA-MB-231/ATCC = assay: NCI in vitro 60-cell drug screen (SRB assay); assay type: cell-based; conditions: MDA-MB-231/ATCC (Breast cancer); 10^-5 molar concentration; 48 hours
HS 578T = assay: NCI in vitro 60-cell drug screen (SRB assay); assay type: cell-based; conditions: HS 578T (Breast cancer); 10^-5 molar concentration; 48 hours
MDA-MB-486 = assay: NCI in vitro 60-cell drug screen (SRB assay); assay type: cell-based; conditions: MDA-MB-486 (Breast cancer); 10^-5 molar concentration; 48 hours
60 cell lines = assay: NCI in vitro 60-cell drug screen (SRB assay), whole panel statistics; conditions: mean over the cell panel; 10^-5 molar concentration; 48 hours

Compound | Growth percent (CCRF-CEM) [%] | Growth percent (K-562) [%] | Growth percent (MOLT-4) [%] | Growth percent (SR) [%] | Growth percent (A549/ATCC) [%] | Growth percent (HOP-62) [%] | Growth percent (NCI-H322M) [%] | Growth percent (NCI-H460) [%] | Growth percent (NCI-H522) [%] | Growth percent (HCT-116) [%] | Growth percent (HCT-15) [%] | Growth percent (SF-539) [%] | Growth percent (SNB-19) [%] | Growth percent (SNB-75) [%] | Growth percent (U251) [%] | Growth percent (LOX IMVI) [%] | Growth percent (MALME-3M) [%] | Growth percent (M14) [%] | Growth percent (SK-MEL-2) [%] | Growth percent (UACC-257) [%] | other results
O=c1c2cc(Cl)ccc2sc2c(N3CCN(CCO)CC3)nc3ccccc3c12 [Compound 10, 10-Chloro-6-(4-(2-hydroxyethyl)piperazin-1-yl)-12H-thiochrom eno[2,3-c]quinolin-12one] | 83.46 | 35.47 | 70.01 | 79.07 | 95.49 | 67.83 | 82.85 | 93.71 | 94.76 | 69.33 | 82.92 | 86.18 | 84.81 | 77.64 | 83.31 | 87.79 | 119.20 | 101.70 | 104.06 | 102.79 | Growth percent (UACC-62): 91.36%; Growth percent (OVCAR-4): 85.35%; Growth percent (OVCAR-5): 95.70%; Growth percent (OVCAR-8): 84.95%; Growth percent (786-0): 85.58%; Growth percent (A498): 62.20%; Growth percent (ACHN): 83.05%; Growth percent (RXF 393): 70.31%; Growth percent (SN12C): 86.81%; Growth percent (MCF7): 51.73%; Growth percent (MDA-MB-231/ATCC): 55.49%; Growth percent (HS 578T): 76.01%; Growth percent (MDA-MB-486): 81.67%; Growth percent, Mean (60 cell lines): 84.06%
O=c1c2ccc(Cl)cc2sc2c(Cl)nc3ccccc3c12 [Compound 3, 6,9-Dichloro-12H-thiochromeno[2,3-c]quinolin-12-one] | 93.12 | 101.04 | 98.04 | 89.02 | 104.74 | 82.02 | 100.12 | 103.14 | 96.81 | 102.27 | 102.28 | 89.02 | 107.89 | 77.88 | 101.71 | 90.53 | 95.87 | 106.18 | 95.54 | 104.47 | Growth percent (UACC-62): 89.69%; Growth percent (OVCAR-4): 87.91%; Growth percent (OVCAR-5): 100.07%; Growth percent (OVCAR-8): 101.62%; Growth percent (786-0): 105.25%; Growth percent (A498): 106.06%; Growth percent (ACHN): 86.84%; Growth percent (RXF 393): 102.55%; Growth percent (SN12C): 95.92%; Growth percent (MCF7): 82.58%; Growth percent (MDA-MB-231/ATCC): 84.28%; Growth percent (HS 578T): 95.14%; Growth percent (MDA-MB-486): 98.57%; Growth percent, Mean (60 cell lines): 98.11%
CN1CCN(c2nc3ccccc3c3c(=O)c4cc(Cl)ccc4sc23)CC1 [Compound 8, 10-Chloro-6-(4-methylpiperazin-1-yl)-12H-thiochromeno[2,3-c]q uinolin-12-one] | 91.60 | 72.98 | 87.97 | 86.41 | 99.80 | 49.41 | 77.04 | 96.05 | 98.78 | 80.94 | 93.94 | 85.30 | 87.07 | 42.15 | 92.52 | 87.47 | 108.36 | 102.15 | 97.53 | 100.55 | Growth percent (UACC-62): 99.27%; Growth percent (OVCAR-4): 94.93%; Growth percent (OVCAR-5): 98.14%; Growth percent (OVCAR-8): 89.44%; Growth percent (786-0): 90.48%; Growth percent (A498): 79.33%; Growth percent (ACHN): 89.73%; Growth percent (RXF 393): 88.57%; Growth percent (SN12C): 83.03%; Growth percent (MCF7): 76.60%; Growth percent (MDA-MB-231/ATCC): 57.30%; Growth percent (HS 578T): 65.57%; Growth percent (MDA-MB-486): 102.02%; Growth percent, Mean (60 cell lines): 86.81%
